According to PubChem BioAssay AID256 (DTP/NCI, 2004):
“And” between values parts separate entries of the source, which are not always exact repeats. Equal values may be shown once. Toxic doses and inconclusive results are not listed. Rule for the calls: active = survival T/C of 150% or more; inactive = T/C below 125% in these data.

Test system: CD2F1 mice, L1210 leukemia ip, survival T/C
Assay: NCI In Vivo Anticancer Drug Screen. Data for tumor model L1210 Leukemia (intraperitoneal) in CD2F1 (CDF1) mice
Conditions: higher = longer survival
Summary of the method: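 Antitumor effect is scored in animals hosting a serially transplanted tumor. Values compare compound-dosed animals against vehicle-only controls as a simple quotient.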

[1] = endpoint: mean survival time, dose: 12.5 mg/kg/injection, schedule: Q01DX009 (ip), vehicle: saline with Tween-80
[2] = endpoint: mean survival time, dose: 100.0 mg/kg/injection, schedule: Q04DX003 (ip), vehicle: Klucel (hydroxypropylcellulose) (HPC)
[3] = endpoint: mean survival time, dose: 100.0 mg/kg/injection, schedule: Q01DX009 (ip), vehicle: saline with Tween-80
[4] = endpoint: mean survival time, dose: 200.0 mg/kg/injection, schedule: Q01DX009 (ip), vehicle: saline with Tween-80
[5] = endpoint: mean survival time, dose: 400.0 mg/kg/injection, schedule: Q01DX009 (ip), vehicle: saline with Tween-80
[6] = endpoint: mean survival time, dose: 100.0 mg/kg/injection, schedule: Q01DX001 (ip), vehicle: other
[7] = endpoint: mean survival time, dose: 200.0 mg/kg/injection, schedule: Q01DX001 (ip), vehicle: other
[8] = endpoint: mean survival time, dose: 400.0 mg/kg/injection, schedule: Q01DX001 (ip), vehicle: other

Measured: T/C

NC(=O)/C=C/C(=O)c1c(Cl)cccc1Cl
inactive: endpoint: mean survival time, dose: 0.78 mg/kg/injection, schedule: Q01DX009 (ip), vehicle: saline with Tween-80 98 % of control | endpoint: mean survival time, dose: 0.79 mg/kg/injection, schedule: Q01DX009 (ip), vehicle: saline with Tween-80 97 % of control | endpoint: mean survival time, dose: 1.56 mg/kg/injection, schedule: Q01DX009 (ip), vehicle: saline with Tween-80 95 % of control and 97 % of control | endpoint: mean survival time, dose: 3.12 mg/kg/injection, schedule: Q01DX009 (ip), vehicle: saline with Tween-80 91 % of control and 104 % of control | endpoint: mean survival time, dose: 6.25 mg/kg/injection, schedule: Q01DX009 (ip), vehicle: saline with Tween-80 97 % of control and 101 % of control | [1] 98 % of control and 100 % of control

O
inactive: endpoint: mean survival time, dose: 75.0 mg/kg/injection, schedule: Q01DX001 (ip), vehicle: saline 96 % of control | endpoint: mean survival time, dose: 100.0 mg/kg/injection, schedule: Q01DX009 (ip), vehicle: saline 88 % of control | endpoint: mean survival time, dose: 200.0 mg/kg/injection, schedule: Q01DX009 (ip), vehicle: saline 100 % of control | endpoint: mean survival time, dose: 400.0 mg/kg/injection, schedule: Q01DX009 (ip), vehicle: saline 96 % of control

[Cl][Pt+2][Cl].c1ccc(CC2CC[N-]CC2)cc1.c1ccc(CC2CC[N-]CC2)cc1
inactive: endpoint: mean survival time, dose: 50.0 mg/kg/injection, schedule: Q01DX001 (ip), vehicle: saline with Tween-80 96 % of control | endpoint: mean survival time, dose: 100.0 mg/kg/injection, schedule: Q01DX001 (ip), vehicle: saline with Tween-80 96 % of control | endpoint: mean survival time, dose: 200.0 mg/kg/injection, schedule: Q01DX001 (ip), vehicle: saline with Tween-80 90 % of control

CC(C)(C)Nc1ccc([N+](=O)[O-])cc1Cl
inactive: endpoint: mean survival time, dose: 12.5 mg/kg/injection, schedule: Q01DX001 (ip), vehicle: DMSO 89 % of control | endpoint: mean survival time, dose: 25.0 mg/kg/injection, schedule: Q01DX001 (ip), vehicle: DMSO 100 % of control | endpoint: mean survival time, dose: 25.0 mg/kg/injection, schedule: Q04DX003 (ip), vehicle: Klucel (hydroxypropylcellulose) (HPC) 93 % of control | endpoint: mean survival time, dose: 50.0 mg/kg/injection, schedule: Q01DX001 (ip), vehicle: DMSO 103 % of control | endpoint: mean survival time, dose: 50.0 mg/kg/injection, schedule: Q04DX003 (ip), vehicle: Klucel (hydroxypropylcellulose) (HPC) 94 % of control | [2] 91 % of control

CN(C)N=Nc1ccc(N=Nc2ccc(N(CCO)CCO)cc2)cc1
inactive: endpoint: mean survival time, dose: 100.0 mg/kg/injection, schedule: Q01DX001 (ip), vehicle: saline 102 % of control | endpoint: mean survival time, dose: 200.0 mg/kg/injection, schedule: Q01DX001 (ip), vehicle: saline 93 % of control | endpoint: mean survival time, dose: 400.0 mg/kg/injection, schedule: Q01DX001 (ip), vehicle: saline 101 % of control

COC1=C(N=[N+]=[N-])C(=O)C(OC)=C(N=[N+]=[N-])C1=O
inactive: endpoint: mean survival time, dose: 5.0 mg/kg/injection, schedule: Q01DX009 (ip), vehicle: saline with Tween-80 101 % of control | endpoint: mean survival time, dose: 5.0 mg/kg/injection, schedule: Q04DX003 (ip), vehicle: saline with Tween-80 93 % of control | endpoint: mean survival time, dose: 10.0 mg/kg/injection, schedule: Q01DX009 (ip), vehicle: saline with Tween-80 94 % of control | endpoint: mean survival time, dose: 10.0 mg/kg/injection, schedule: Q04DX003 (ip), vehicle: saline with Tween-80 95 % of control | endpoint: mean survival time, dose: 20.0 mg/kg/injection, schedule: Q01DX009 (ip), vehicle: saline with Tween-80 94 % of control | endpoint: mean survival time, dose: 20.0 mg/kg/injection, schedule: Q04DX003 (ip), vehicle: saline with Tween-80 95 % of control

CCOC(=O)C(C#N)N=Nc1ccccc1 (stereo not given)
inactive: [3] 95 % of control | [4] 95 % of control | [5] 95 % of control

O=S1(=O)Oc2cccc3cccc1c23
inactive: [3] 95 % of control | endpoint: mean survival time, dose: 100.0 mg/kg/injection, schedule: Q04DX003 (ip), vehicle: saline with Tween-80 102 % of control | [4] 98 % of control | endpoint: mean survival time, dose: 200.0 mg/kg/injection, schedule: Q04DX003 (ip), vehicle: saline with Tween-80 102 % of control | [5] 92 % of control | endpoint: mean survival time, dose: 400.0 mg/kg/injection, schedule: Q04DX003 (ip), vehicle: saline with Tween-80 103 % of control

CCOC(=O)CCCCCSc1nn(C2OC(CO)C(O)C2O)c(=O)[nH]c1=O (stereo not given)
inactive: endpoint: mean survival time, dose: 12.5 mg/kg/injection, schedule: Q01DX005 (ip), vehicle: distilled water + Tween-80 103 % of control | endpoint: mean survival time, dose: 25.0 mg/kg/injection, schedule: Q01DX005 (ip), vehicle: distilled water + Tween-80 98 % of control | endpoint: mean survival time, dose: 50.0 mg/kg/injection, schedule: Q01DX005 (ip), vehicle: distilled water + Tween-80 104 % of control | endpoint: mean survival time, dose: 100.0 mg/kg/injection, schedule: Q01DX005 (ip), vehicle: distilled water + Tween-80 103 % of control | endpoint: mean survival time, dose: 200.0 mg/kg/injection, schedule: Q01DX005 (ip), vehicle: distilled water + Tween-80 97 % of control

CC(=O)[O][Hg][c]1s[c]([Hg][O]C(C)=O)[c]([Hg][O]C(C)=O)[c]1[Hg][O]C(C)=O
inactive: endpoint: mean survival time, dose: 1.5 mg/kg/injection, schedule: Q01DX009 (ip), vehicle: saline sonified 96 % of control | endpoint: mean survival time, dose: 3.0 mg/kg/injection, schedule: Q01DX009 (ip), vehicle: saline sonified 98 % of control | endpoint: mean survival time, dose: 6.0 mg/kg/injection, schedule: Q01DX009 (ip), vehicle: saline sonified 106 % of control | endpoint: mean survival time, dose: 6.25 mg/kg/injection, schedule: Q01DX009 (ip), vehicle: Klucel (hydroxypropylcellulose) (HPC) 101 % of control | endpoint: mean survival time, dose: 6.25 mg/kg/injection, schedule: Q04DX003 (ip), vehicle: saline with Tween-80 104 % of control | endpoint: mean survival time, dose: 12.5 mg/kg/injection, schedule: Q01DX009 (ip), vehicle: Klucel (hydroxypropylcellulose) (HPC) 106 % of control | endpoint: mean survival time, dose: 25.0 mg/kg/injection, schedule: Q01DX009 (ip), vehicle: Klucel (hydroxypropylcellulose) (HPC) 104 % of control

CC(C)(COCc1ccccc1)COP(N)(=O)N(CCCl)CCCl (stereo not given)
inactive: endpoint: mean survival time, dose: 25.0 mg/kg/injection, schedule: Q01DX001 (ip), vehicle: other 102 % of control | endpoint: mean survival time, dose: 50.0 mg/kg/injection, schedule: Q01DX001 (ip), vehicle: other 93 % of control | [6] 87 % of control | [7] 96 % of control | [8] 98 % of control

c1cc[n+](CC[n+]2ccccc2)cc1
inactive: endpoint: mean survival time, dose: 100.0 mg/kg/injection, schedule: Q04DX003 (ip), vehicle: saline 102 % of control | endpoint: mean survival time, dose: 200.0 mg/kg/injection, schedule: Q04DX003 (ip), vehicle: saline 100 % of control | endpoint: mean survival time, dose: 400.0 mg/kg/injection, schedule: Q04DX003 (ip), vehicle: saline 111 % of control

O=Cc1cccc2ccc3ccccc3c12
inactive: endpoint: median survival time, dose: 50.0 mg/kg/injection, schedule: Q04DX002 (ip), vehicle: saline with Tween-80 111 % of control | endpoint: median survival time, dose: 100.0 mg/kg/injection, schedule: Q04DX002 (ip), vehicle: saline with Tween-80 100 % of control | endpoint: median survival time, dose: 200.0 mg/kg/injection, schedule: Q04DX002 (ip), vehicle: saline with Tween-80 111 % of control

C#CCCCOC(=O)Nc1ccccc1
inactive: [2] 97 % of control | endpoint: mean survival time, dose: 200.0 mg/kg/injection, schedule: Q04DX003 (ip), vehicle: Klucel (hydroxypropylcellulose) (HPC) 95 % of control

Cc1nc2cc(Cl)cc([N+](=O)[O-])c2nc1C
inactive: [6] 103 % of control | [7] 97 % of control | [8] 97 % of control

CCCCOCN(COCCCC)C12CC3CC(CC(C3)C1)C2
inactive: [1] 96 % of control and 100 % of control | endpoint: mean survival time, dose: 25.0 mg/kg/injection, schedule: Q01DX009 (ip), vehicle: saline with Tween-80 98 % of control | endpoint: mean survival time, dose: 50.0 mg/kg/injection, schedule: Q01DX009 (ip), vehicle: saline with Tween-80 101 % of control and 103 % of control | [3] 101 % of control and 105 % of control | [4] 113 % of control and 108 % of control
